From ChEMBL document CHEMBL4507286 (2021)

Experiments:
[1] = test system: Tyrosine-protein kinase ABL1 (Homo sapiens), P00519 [F317L]
[2] = test system: Tyrosine-protein kinase ABL1 (Homo sapiens), P00519 [H396P]
[3] = test system: Tyrosine-protein kinase ABL1 (Homo sapiens), P00519 [Y253F]
[4] = target: Activin receptor type-1 (Homo sapiens) (UniProt Q04771)
[5] = target: Atypical kinase COQ8A, mitochondrial (Homo sapiens) (UniProt Q8NI60)
[6] = target: Dual specificity protein kinase CLK3 (Homo sapiens) (UniProt P49761)
[7] = target: Death-associated protein kinase 1 (Homo sapiens) (UniProt P53355)
[8] = target: Serine/threonine-protein kinase DCLK1 (Homo sapiens) (UniProt O15075)
[9] = target: Discoidin domain-containing receptor 2 (Homo sapiens) (UniProt Q16832)
[10] = target: Eukaryotic translation initiation factor 2-alpha kinase 1 (Homo sapiens) (UniProt Q9BQI3)
[11] = target: Mitogen-activated protein kinase 7 (Homo sapiens) (UniProt Q13164)
[12] = test system: Receptor-type tyrosine-protein kinase FLT3 (Homo sapiens), P36888 [UNDEFINED MUTATION]
[13] = target: Homeodomain-interacting protein kinase 3 (Homo sapiens) (UniProt Q9H422)
[14] = target: Inhibitor of nuclear factor kappa-B kinase subunit alpha (Homo sapiens) (UniProt O15111)
[15] = target: Inhibitor of nuclear factor kappa-B kinase subunit beta (Homo sapiens) (UniProt O14920)
[16] = target: Interleukin-1 receptor-associated kinase 3 (Homo sapiens) (UniProt Q9Y616)
[17] = target: Leucine-rich repeat serine/threonine-protein kinase 2 (Homo sapiens) (UniProt Q5S007)
[18] = target: Myosin light chain kinase (Homo sapiens) (UniProt Q32MK0)
[19] = target: Mitogen-activated protein kinase kinase kinase 9 (Homo sapiens) (UniProt P80192)
[20] = target: Serine/threonine-protein kinase MRCK alpha (Homo sapiens) (UniProt Q5VT25)
[21] = target: Serine/threonine-protein kinase Nek2 (Homo sapiens) (UniProt P51955)
[22] = target: Cyclin-dependent kinase 16 (Homo sapiens) (UniProt Q00536)
[23] = target: Serine/threonine-protein kinase N2 (Homo sapiens) (UniProt Q16513)
[24] = target: Serine/threonine-protein kinase PLK2 (Homo sapiens) (UniProt Q9NYY3)
[25] = target: Serine/threonine-protein kinase D2 (Homo sapiens) (UniProt Q9BZL6)
[26] = target: Serine/threonine-protein kinase D3 (Homo sapiens) (UniProt O94806)
[27] = test system: Proto-oncogene tyrosine-protein kinase receptor Ret (Homo sapiens), P07949 [M918T]
[28] = target: Ribosomal protein S6 kinase alpha-5 (Homo sapiens) (UniProt O75582)
[29] = target: Ribosomal protein S6 kinase beta-1 (Homo sapiens) (UniProt P23443)
[30] = target: Tyrosine-protein kinase Srms (Homo sapiens) (UniProt Q9H3Y6)
[31] = target: Serine/threonine-protein kinase 33 (Homo sapiens) (UniProt Q9BYT3)
[32] = target: Tyrosine-protein kinase Tec (Homo sapiens) (UniProt P42680)
[33] = target: TGF-beta receptor type-2 (Homo sapiens) (UniProt P37173)
[34] = target: Non-receptor tyrosine-protein kinase TNK1 (Homo sapiens) (UniProt Q13470)
[35] = target: Dual specificity protein kinase TTK (Homo sapiens) (UniProt P33981)
[36] = target: Tyrosine-protein kinase receptor TYRO3 (Homo sapiens) (UniProt Q06418)
[37] = target: 5-hydroxytryptamine receptor 3A (Homo sapiens) (UniProt P46098); settings: Compound concentration 10.0 uM
[38] = target: Sodium-dependent dopamine transporter (Homo sapiens) (UniProt Q01959); settings: Compound concentration 10.0 uM
[39] = target: Histamine H4 receptor (Homo sapiens) (UniProt Q9H3N8); settings: Compound concentration 10.0 uM
[40] = target: Alpha-1A adrenergic receptor (Homo sapiens) (UniProt P35348); settings: Compound concentration 10.0 uM
[41] = target: Alpha-2A adrenergic receptor (Homo sapiens) (UniProt P08913); settings: Compound concentration 10.0 uM
[42] = target: Muscarinic acetylcholine receptor M2 (Homo sapiens) (UniProt P08172); settings: Compound concentration 10.0 uM
[43] = target: Muscarinic acetylcholine receptor M5 (Homo sapiens) (UniProt P08912); settings: Compound concentration 10.0 uM
[44] = target: GABA-A receptor; anion channel (Rattus norvegicus) (UniProt O09028+P15431+P18506+P18508+P19969+P20236+P23574+P23576+P28471+P28473+P30191+P62813+P63079+P63138+Q91ZM7+Q9ES14); settings: Compound concentration 10.0 uM
[45] = Compound concentration 1000.0 nM
[46] = Compound concentration 100.0 nM

Serine/threonine-protein kinase N2 (Homo sapiens), sequence (Q16513 whole entry, looked up): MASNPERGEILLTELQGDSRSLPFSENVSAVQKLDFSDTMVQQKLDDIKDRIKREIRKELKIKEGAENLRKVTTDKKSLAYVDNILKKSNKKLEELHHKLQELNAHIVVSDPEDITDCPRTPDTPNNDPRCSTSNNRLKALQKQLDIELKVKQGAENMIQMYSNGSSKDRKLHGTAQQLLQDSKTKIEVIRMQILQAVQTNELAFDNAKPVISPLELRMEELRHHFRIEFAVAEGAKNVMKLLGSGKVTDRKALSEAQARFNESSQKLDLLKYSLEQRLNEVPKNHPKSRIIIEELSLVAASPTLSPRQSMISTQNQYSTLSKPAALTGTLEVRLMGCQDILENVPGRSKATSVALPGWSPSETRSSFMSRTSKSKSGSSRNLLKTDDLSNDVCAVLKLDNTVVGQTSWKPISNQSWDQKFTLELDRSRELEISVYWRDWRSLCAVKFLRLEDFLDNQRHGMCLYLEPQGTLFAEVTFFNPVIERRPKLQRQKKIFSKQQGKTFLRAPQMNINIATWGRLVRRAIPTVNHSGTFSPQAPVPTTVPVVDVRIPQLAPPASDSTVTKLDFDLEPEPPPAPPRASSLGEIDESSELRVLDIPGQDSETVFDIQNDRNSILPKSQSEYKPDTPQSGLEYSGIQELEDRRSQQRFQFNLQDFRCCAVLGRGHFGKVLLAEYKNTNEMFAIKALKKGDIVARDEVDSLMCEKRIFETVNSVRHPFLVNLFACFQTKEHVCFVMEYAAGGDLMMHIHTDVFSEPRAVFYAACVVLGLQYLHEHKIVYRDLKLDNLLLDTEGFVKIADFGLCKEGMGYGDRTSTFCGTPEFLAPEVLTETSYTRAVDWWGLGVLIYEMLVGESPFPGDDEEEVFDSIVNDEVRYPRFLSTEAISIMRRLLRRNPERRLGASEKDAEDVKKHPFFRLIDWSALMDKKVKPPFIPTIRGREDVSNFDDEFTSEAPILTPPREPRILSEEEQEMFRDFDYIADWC
Myosin light chain kinase (Homo sapiens), sequence (Q32MK0 whole entry): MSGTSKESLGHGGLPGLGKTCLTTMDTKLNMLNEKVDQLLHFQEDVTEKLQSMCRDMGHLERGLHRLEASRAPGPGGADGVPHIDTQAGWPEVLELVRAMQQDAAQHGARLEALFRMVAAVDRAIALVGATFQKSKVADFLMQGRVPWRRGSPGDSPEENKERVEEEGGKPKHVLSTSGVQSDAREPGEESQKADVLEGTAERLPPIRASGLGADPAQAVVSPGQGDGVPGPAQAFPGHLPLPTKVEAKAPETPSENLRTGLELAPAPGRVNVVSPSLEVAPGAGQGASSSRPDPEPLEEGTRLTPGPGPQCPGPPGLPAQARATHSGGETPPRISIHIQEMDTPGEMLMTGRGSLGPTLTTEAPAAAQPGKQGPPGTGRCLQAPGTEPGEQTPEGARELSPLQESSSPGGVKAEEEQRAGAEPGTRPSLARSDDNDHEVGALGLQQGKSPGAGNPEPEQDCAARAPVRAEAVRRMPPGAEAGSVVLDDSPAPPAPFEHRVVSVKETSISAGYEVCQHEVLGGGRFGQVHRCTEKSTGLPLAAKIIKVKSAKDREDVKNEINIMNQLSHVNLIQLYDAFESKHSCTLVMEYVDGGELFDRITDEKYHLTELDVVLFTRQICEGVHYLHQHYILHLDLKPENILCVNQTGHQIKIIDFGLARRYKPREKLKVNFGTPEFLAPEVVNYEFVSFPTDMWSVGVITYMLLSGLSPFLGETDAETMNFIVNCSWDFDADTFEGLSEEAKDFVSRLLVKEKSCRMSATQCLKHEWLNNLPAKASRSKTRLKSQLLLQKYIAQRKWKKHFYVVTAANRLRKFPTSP
Serine/threonine-protein kinase PLK2 (Homo sapiens), sequence (Q9NYY3 whole entry, looked up): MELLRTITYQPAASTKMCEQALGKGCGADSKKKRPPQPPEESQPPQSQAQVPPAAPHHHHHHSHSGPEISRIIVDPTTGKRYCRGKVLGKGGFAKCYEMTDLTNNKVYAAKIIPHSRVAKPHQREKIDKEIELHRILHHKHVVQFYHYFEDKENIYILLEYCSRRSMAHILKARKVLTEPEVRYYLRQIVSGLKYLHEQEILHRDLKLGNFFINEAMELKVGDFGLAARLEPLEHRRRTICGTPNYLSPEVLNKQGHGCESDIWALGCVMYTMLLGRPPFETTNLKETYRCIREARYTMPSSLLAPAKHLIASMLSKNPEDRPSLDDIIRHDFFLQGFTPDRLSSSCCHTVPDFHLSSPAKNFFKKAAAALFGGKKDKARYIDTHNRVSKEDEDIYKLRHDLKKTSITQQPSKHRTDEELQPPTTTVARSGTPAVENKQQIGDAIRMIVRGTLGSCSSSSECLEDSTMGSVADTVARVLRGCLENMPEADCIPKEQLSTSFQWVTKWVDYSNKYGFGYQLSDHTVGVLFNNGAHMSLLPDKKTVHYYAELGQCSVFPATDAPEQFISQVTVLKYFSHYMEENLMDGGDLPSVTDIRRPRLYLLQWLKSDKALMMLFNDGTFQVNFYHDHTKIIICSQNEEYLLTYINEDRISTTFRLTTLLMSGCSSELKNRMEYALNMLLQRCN
Inhibitor of nuclear factor kappa-B kinase subunit beta (Homo sapiens), sequence (O14920 whole entry): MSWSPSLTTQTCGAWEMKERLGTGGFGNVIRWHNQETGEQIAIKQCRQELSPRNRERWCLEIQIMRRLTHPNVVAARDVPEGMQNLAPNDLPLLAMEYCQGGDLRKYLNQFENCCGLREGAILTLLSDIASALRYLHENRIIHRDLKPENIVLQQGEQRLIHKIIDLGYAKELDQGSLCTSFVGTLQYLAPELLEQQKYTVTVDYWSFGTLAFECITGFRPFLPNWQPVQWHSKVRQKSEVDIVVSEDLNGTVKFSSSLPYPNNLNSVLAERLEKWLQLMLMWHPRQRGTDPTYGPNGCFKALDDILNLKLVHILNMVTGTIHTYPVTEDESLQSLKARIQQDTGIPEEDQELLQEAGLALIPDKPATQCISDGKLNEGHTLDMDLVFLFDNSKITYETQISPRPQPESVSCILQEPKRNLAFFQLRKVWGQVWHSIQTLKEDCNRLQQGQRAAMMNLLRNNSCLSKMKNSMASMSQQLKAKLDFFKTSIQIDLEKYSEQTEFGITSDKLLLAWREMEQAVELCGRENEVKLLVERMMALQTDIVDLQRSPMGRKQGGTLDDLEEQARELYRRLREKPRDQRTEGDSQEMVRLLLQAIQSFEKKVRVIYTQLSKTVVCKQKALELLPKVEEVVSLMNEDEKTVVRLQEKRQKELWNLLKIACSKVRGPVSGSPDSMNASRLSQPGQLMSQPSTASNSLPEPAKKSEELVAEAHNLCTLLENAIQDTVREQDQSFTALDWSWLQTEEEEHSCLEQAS
Mitogen-activated protein kinase kinase kinase 9 (Homo sapiens), sequence (P80192 whole entry, looked up): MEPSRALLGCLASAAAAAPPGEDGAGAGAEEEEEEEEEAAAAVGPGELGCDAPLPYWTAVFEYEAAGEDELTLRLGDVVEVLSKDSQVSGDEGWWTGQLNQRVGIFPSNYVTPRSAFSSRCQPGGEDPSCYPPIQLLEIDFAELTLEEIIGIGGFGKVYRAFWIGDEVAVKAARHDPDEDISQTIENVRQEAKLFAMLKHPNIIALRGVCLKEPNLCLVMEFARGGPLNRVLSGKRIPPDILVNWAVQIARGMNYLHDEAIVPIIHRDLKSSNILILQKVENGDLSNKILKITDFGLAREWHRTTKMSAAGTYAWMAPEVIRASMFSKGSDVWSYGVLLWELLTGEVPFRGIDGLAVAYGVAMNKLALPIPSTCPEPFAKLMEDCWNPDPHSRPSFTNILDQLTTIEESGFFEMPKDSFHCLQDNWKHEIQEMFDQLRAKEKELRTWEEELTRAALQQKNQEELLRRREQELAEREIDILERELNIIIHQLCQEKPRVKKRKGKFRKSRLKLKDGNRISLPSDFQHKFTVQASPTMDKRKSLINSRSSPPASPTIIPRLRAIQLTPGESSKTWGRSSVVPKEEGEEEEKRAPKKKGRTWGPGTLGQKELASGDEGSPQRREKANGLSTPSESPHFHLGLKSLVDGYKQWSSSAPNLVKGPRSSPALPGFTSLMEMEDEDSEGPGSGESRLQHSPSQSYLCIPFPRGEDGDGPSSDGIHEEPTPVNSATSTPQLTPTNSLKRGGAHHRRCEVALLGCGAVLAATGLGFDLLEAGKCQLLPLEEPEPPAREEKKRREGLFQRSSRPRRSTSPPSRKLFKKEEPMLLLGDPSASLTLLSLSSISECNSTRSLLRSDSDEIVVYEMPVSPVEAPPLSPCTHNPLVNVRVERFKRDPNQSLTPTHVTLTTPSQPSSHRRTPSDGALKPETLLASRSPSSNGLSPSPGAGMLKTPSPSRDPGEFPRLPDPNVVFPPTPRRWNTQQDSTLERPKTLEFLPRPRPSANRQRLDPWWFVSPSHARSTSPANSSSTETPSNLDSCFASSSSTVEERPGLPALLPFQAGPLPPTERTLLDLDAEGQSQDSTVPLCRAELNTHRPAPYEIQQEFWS
Inhibitor of nuclear factor kappa-B kinase subunit alpha (Homo sapiens), sequence (O15111 whole entry): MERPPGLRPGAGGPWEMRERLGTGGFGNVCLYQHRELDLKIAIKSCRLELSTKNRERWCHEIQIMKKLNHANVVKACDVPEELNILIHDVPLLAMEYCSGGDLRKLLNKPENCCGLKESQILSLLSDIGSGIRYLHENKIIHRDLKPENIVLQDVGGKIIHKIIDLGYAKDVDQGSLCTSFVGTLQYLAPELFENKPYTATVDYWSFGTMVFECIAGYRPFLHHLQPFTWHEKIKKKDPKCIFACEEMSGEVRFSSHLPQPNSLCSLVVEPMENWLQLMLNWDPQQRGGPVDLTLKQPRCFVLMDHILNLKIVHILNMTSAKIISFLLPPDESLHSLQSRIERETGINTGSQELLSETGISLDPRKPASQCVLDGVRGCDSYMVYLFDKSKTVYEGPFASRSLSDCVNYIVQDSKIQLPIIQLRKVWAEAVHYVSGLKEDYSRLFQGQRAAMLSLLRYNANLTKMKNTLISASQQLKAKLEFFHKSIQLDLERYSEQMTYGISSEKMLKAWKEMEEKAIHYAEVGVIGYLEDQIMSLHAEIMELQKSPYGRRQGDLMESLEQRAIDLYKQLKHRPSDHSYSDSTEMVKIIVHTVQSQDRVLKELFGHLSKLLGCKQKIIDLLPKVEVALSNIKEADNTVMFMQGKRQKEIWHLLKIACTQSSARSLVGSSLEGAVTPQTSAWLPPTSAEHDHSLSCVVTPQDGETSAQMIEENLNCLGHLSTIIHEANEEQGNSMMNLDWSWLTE

With `C[C@H](NC(=O)Nc1cc2[nH]ncc2c(CO)n1)c1ccccn1` [ERKi-NC] the residual activity [1, 45] was 100%, the residual activity [2, 45] was 72.5% and the residual activity [3, 45] was 100%. For the same molecule, the residual activity [4, 45] was 81.8%, the residual activity [5, 45] was 96.3% and the residual activity [6, 45] was 100%. The residual activity [7, 45] was 100%, the residual activity [8, 45] was 71.1% and the residual activity [9, 45] was 94.3%. For the same molecule, the residual activity [10, 45] was 100%, the residual activity [11, 45] was 87.9% and the residual activity [12, 45] was 100%. The residual activity [13, 45] was 85.1%, the residual activity [14, 45] was 100% and the residual activity [15, 45] was 100%. For the same molecule, the residual activity [16, 45] was 99.3%, the residual activity [17, 45] was 71.3% and the residual activity [18, 45] was 100%. For the same molecule, the residual activity [19, 45] was 100%, the residual activity [20, 45] was 93.5% and the residual activity [21, 45] was 96.9%. The residual activity [22, 45] was 100%, the residual activity [23, 45] was 100% and the residual activity [24, 45] was 100%. For the same molecule, the residual activity [25, 45] was 100%, the residual activity [26, 45] was 100% and the residual activity [27, 45] was 100%. It also gave a residual activity [28, 45] of 100%, a residual activity [29, 45] of 58.3% and a residual activity [30, 45] of 84%. The residual activity [31, 45] was 100%, the residual activity [32, 45] was 100% and the residual activity [33, 45] was 76.1%. The residual activity [34, 45] was 87.8%, the residual activity [35, 45] was 80.3% and the residual activity [36, 45] was 59.2%. For the same molecule, the inhibition [37] was -0.282%, the inhibition [38] was 4.79% and the inhibition [39] was 41.9%. The inhibition [40] was -8.5%, the inhibition [41] was 16.8% and the inhibition [42] was 14.2%. The inhibition [43] was 7.22% and the inhibition [44] was 20.2%.

`C[C@@H](NC(=O)Nc1cc2[nH]ncc2c(CO)n1)c1ccccc1` [ERKi] was tested, and the residual activity [1, 46] was 100%, the residual activity [2, 46] was 94.6% and the residual activity [3, 46] was 76.2%. For the same molecule, the residual activity [4, 46] was 98.3%, the residual activity [5, 46] was 89.6% and the residual activity [6, 46] was 82.2%. For the same molecule, the residual activity [7, 46] was 90.5%, the residual activity [8, 46] was 90.3% and the residual activity [9, 46] was 98.5%. It also gave a residual activity [10, 46] of 92.8%, a residual activity [11, 46] of 85.5% and a residual activity [12, 46] of 100%. For the same molecule, the residual activity [13, 46] was 96.2%, the residual activity [14, 46] was 100% and the residual activity [15, 46] was 100%. For the same molecule, the residual activity [16, 46] was 80%, the residual activity [17, 46] was 94.6% and the residual activity [18, 46] was 100%. The residual activity [19, 46] was 95.7%, the residual activity [20, 46] was 86.5% and the residual activity [21, 46] was 100%. The residual activity [22, 46] was 82.2%, the residual activity [23, 46] was 83.4% and the residual activity [24, 46] was 95.1%. The residual activity [25, 46] was 97.5%, the residual activity [26, 46] was 100% and the residual activity [27, 46] was 100%. The residual activity [28, 46] was 87.8%, the residual activity [29, 46] was 90% and the residual activity [30, 46] was 87.1%. For the same molecule, the residual activity [31, 46] was 100%, the residual activity [32, 46] was 93.6% and the residual activity [33, 46] was 40.8%. It also gave a residual activity [34, 46] of 98.1%, a residual activity [35, 46] of 85.2% and a residual activity [36, 46] of 100%. For the same molecule, the inhibition [37] was 4.36%, the inhibition [38] was 46.5% and the inhibition [39] was 35.3%. For the same molecule, the inhibition [40] was 16.1%, the inhibition [41] was 9.2% and the inhibition [42] was -3.22%. The inhibition [43] was 35.8% and the inhibition [44] was 46.2%.
